Test system: B16-F1 mouse melanoma cell line
Test: B16 melanin synthesis inhibition assay
Type: cell-based
Conditions: B16-F1 cells, OD at 410 nm
Experimental: In this example, a commercially available B16-F1 mouse melanoma cell line from American Tissue Culture Collection, Virginia, USA was employed in a conventional melanin synthesis inhibition assay. The cell culture medium used in the assay is 500 mL of Dulbecco's Modified Eagle's Medium (DMEM), 50 mL Fetal Bovine Serum (FBS), and 5 mL of penicillin-streptomycin liquid. B16-F1 cells that are cultured in this medium and grown to greater than 90% confluency will synthesize melanin. While not intending to be bound by any theory, it is hypothesized that the melanin synthesis is stimulated by the culture medium and/or stress induced by growth to a high confluency. […] Equipment used in the assay include a CO2 incubator, such as a Forma Series Model 3110 by Therma Scientific, Massachusetts, USA; a hemocytometer, such as a Bright Line model by Hauser Scientific, Pennsylvania, USA; and a UV-Visible Spectrum Plate Reader, such as a SpectraMax250 from Molecular Devices, California, USA. […] Day 3: The cells from the T-150 flask are trypsinized, and the concentration of cells is determined using the hemacytometer. […] Read the 96 well plate using the UV-Vis Plate Reader at 410 nm to optically measure the amount of melanin produced between wells that are treated with the fava bean extract and control wells that are not. […] The concentration of test agent needed to provide the IC 50 is recorded.

Oc1ccc(OC2CCCCO2)cc1 (centres unmarked) [Deoxyarbutin]
Concentration Needed for IC 50: 0.008 v/v

O=c1cc(CO)occ1O [Kojic Acid]
Concentration Needed for IC 50: 0.01 v/v
